In US10189816B2, “Substituted pyridines as inhibitors of human immunodeficiency virus replication” (priority 2015, dated 2019):
Like-named read-outs stand apart in the source and are kept apart here.

Test system: NL-RLuc virus
Assay: Inhibition of HIV replication (NL-RLuc reporter virus in MT-2 cells, luciferase readout)
Assay type: cell-based
Conditions: Human immunodeficiency virus 1, MT2, 120 h
Procedure, shortened: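 MT-2 cells infected with NL4-3-derived NL-RLuc reporter virus (Renilla luciferase replacing part of nef) with serial compound dilutions, RPMI 1640 + 10% FBS; 5 days. Growth by luciferase; EC50 from median effect equation, ≥2 experiments.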

Row | SMILES | EC50 (read-out: Activity) [µM] | EC50 (read-out: EC50 μM) [µM]
1 | Cc1cccc(CN2CCc3cc(-c4c(C)nc(C)c([C@H](OC(C)(C)C)C(=O)O)c4N4CCC(C)(C)CC4)ccc3C2)c1F [Compound 54, (S)-2-(tert-butoxy)-2-(4-(4,4-dimethylpiperidin-1-yl)-5-(2-(2-fluoro-3-methylbenzyl)-1,2,3,4-tetrahydroisoquinolin-6-yl)-2,6-dimethylpyridin-3-yl)acetic acid] | < 0.1 | –
2 | Cc1nc(C)c([C@H](OC(C)(C)C)C(=O)O)c(N2CCC(C)(C)CC2)c1-c1ccc2c(c1)CCN(Cc1ccccc1Cl)C2 [Compound 55, (S)-2-(tert-butoxy)-2-(5-(2-(2-chlorobenzyl)-1,2,3,4-tetrahydroisoquinolin-6-yl)-4-(4,4-dimethylpiperidin-1-yl)-2,6-dimethylpyridin-3-yl)acetic acid] | < 0.1 | –
3 | Cc1nc(C)c([C@H](OC(C)(C)C)C(=O)O)c(N2CCC(C)(C)CC2)c1-c1ccc2c(c1)CCN(Cc1ccc(Cl)cc1)C2 [Compound 56, (S)-2-(tert-butoxy)-2-(5-(2-(4-chlorobenzyl)-1,2,3,4-tetrahydroisoquinolin-6-yl)-4-(4,4-dimethylpiperidin-1-yl)-2,6-dimethylpyridin-3-yl)acetic acid] | < 0.1 | –
4 | Cc1cc(C)c(CN2CCc3cc(-c4c(C)nc(C)c([C@H](OC(C)(C)C)C(=O)O)c4N4CCC(C)(C)CC4)ccc3C2)c(C)c1 [Compound 57, (S)-2-(tert-butoxy)-2-(4-(4,4-dimethylpiperidin-1-yl)-2,6-dimethyl-5-(2-(2,4,6-trimethylbenzyl)-1,2,3,4-tetrahydroisoquinolin-6-yl)pyridin-3-yl)acetic acid] | < 0.1 | –
5 | Cc1nc(C)c([C@H](OC(C)(C)C)C(=O)O)c(N2CCC(C)(C)CC2)c1-c1ccc2c(c1)CCN(Cc1c(F)cc(F)cc1F)C2 [Compound 58, (S)-2-(tert-butoxy)-2-(4-(4,4-dimethylpiperidin-1-yl)-2,6-dimethyl-5-(2-(2,4,6-trifluorobenzyl)-1,2,3,4-tetrahydroisoquinolin-6-yl)pyridin-3-yl)acetic acid] | < 0.1 | –
6 | Cc1nc(C)c([C@H](OC(C)(C)C)C(=O)O)c(N2CCC(C)(C)CC2)c1-c1ccc2c(c1)CCN(Cc1ccc(C(C)C)cc1)C2 [Compound 59, (S)-2-(tert-butoxy)-2-(4-(4,4-dimethylpiperidin-1-yl)-5-(2-(4-isopropylbenzyl)-1,2,3,4-tetrahydroisoquinolin-6-yl)-2,6-dimethylpyridin-3-yl)acetic acid] | < 0.1 | 0.058
7 | CCc1ccc(CN2CCc3cc(-c4c(C)nc(C)c([C@H](OC(C)(C)C)C(=O)O)c4N4CCC(C)(C)CC4)ccc3C2)cc1 [Compound 60, (S)-2-(tert-butoxy)-2-(4-(4,4-dimethylpiperidin-1-yl)-5-(2-(4-ethylbenzyl)-1,2,3,4-tetrahydroisoquinolin-6-yl)-2,6-dimethylpyridin-3-yl)acetic acid] | < 0.1 | –
8 | Cc1nc(C)c([C@H](OC(C)(C)C)C(=O)O)c(N2CCC(C)(C)CC2)c1-c1ccc2c(c1)CCN(Cc1cccc(C#N)c1)C2 [Compound 61, (S)-2-(tert-butoxy)-2-(5-(2-(3-cyanobenzyl)-1,2,3,4-tetrahydroisoquinolin-6-yl)-4-(4,4-dimethylpiperidin-1-yl)-2,6-dimethylpyridin-3-yl)acetic acid] | < 0.1 | –
9 | Cc1nc(C)c([C@H](OC(C)(C)C)C(=O)O)c(N2CCC(C)(C)CC2)c1-c1ccc2c(c1)CCN(Cc1ccccc1C#N)C2 [Compound 62, (S)-2-(tert-butoxy)-2-(5-(2-(2-cyanobenzyl)-1,2,3,4-tetrahydroisoquinolin-6-yl)-4-(4,4-dimethylpiperidin-1-yl)-2,6-dimethylpyridin-3-yl)acetic acid] | < 0.1 | –
10 | Cc1nc(C)c([C@H](OC(C)(C)C)C(=O)O)c(N2CCC(C)(C)CC2)c1-c1ccc2c(c1)CCN(Cc1cc(C#N)ccc1F)C2 [Compound 63, (S)-2-(tert-butoxy)-2-(5-(2-(5-cyano-2-fluorobenzyl)-1,2,3,4-tetrahydroisoquinolin-6-yl)-4-(4,4-dimethylpiperidin-1-yl)-2,6-dimethylpyridin-3-yl)acetic acid] | < 0.1 | –
11 | Cc1nc(C)c([C@H](OC(C)(C)C)C(=O)O)c(N2CCC(C)(C)CC2)c1-c1ccc2c(c1)CCN(Cc1ccc(C#N)cc1)C2 [Compound 64, (S)-2-(tert-butoxy)-2-(5-(2-(4-cyanobenzyl)-1,2,3,4-tetrahydroisoquinolin-6-yl)-4-(4,4-dimethylpiperidin-1-yl)-2,6-dimethylpyridin-3-yl)acetic acid] | < 0.1 | –
12 | Cc1cc(C#N)ccc1CN1CCc2cc(-c3c(C)nc(C)c([C@H](OC(C)(C)C)C(=O)O)c3N3CCC(C)(C)CC3)ccc2C1 [Compound 65, (S)-2-(tert-butoxy)-2-(5-(2-(4-cyano-2-methylbenzyl)-1,2,3,4-tetrahydroisoquinolin-6-yl)-4-(4,4-dimethylpiperidin-1-yl)-2,6-dimethylpyridin-3-yl)acetic acid] | < 0.1 | –
13 | Cc1nc(C)c([C@H](OC(C)(C)C)C(=O)O)c(N2CCC(C)(C)CC2)c1-c1ccc2c(c1)CCN(Cc1cc(F)ccc1C(F)(F)F)C2 [Compound 66, (S)-2-(tert-butoxy)-2-(4-(4,4-dimethylpiperidin-1-yl)-5-(2-(5-fluoro-2-(trifluoromethyl)benzyl)-1,2,3,4-tetrahydroisoquinolin-6-yl)-2,6-dimethylpyridin-3-yl)acetic acid] | < 0.1 | 0.013
14 | Cc1nc(C)c([C@H](OC(C)(C)C)C(=O)O)c(N2CCC(C)(C)CC2)c1-c1ccc2c(c1)CCN(Cc1ccc(F)c(C(F)(F)F)c1)C2 [Compound 67, (S)-2-(tert-butoxy)-2-(4-(4,4-dimethylpiperidin-1-yl)-5-(2-(4-fluoro-3-(trifluoromethyl)benzyl)-1,2,3,4-tetrahydroisoquinolin-6-yl)-2,6-dimethylpyridin-3-yl)acetic acid] | < 0.1 | –
15 | Cc1nc(C)c([C@H](OC(C)(C)C)C(=O)O)c(N2CCC(C)(C)CC2)c1-c1ccc2c(c1)CCN(Cc1cc(F)cc(C(F)(F)F)c1)C2 [Compound 68, (S)-2-(tert-butoxy)-2-(4-(4,4-dimethylpiperidin-1-yl)-5-(2-(3-fluoro-5-(trifluoromethyl)benzyl)-1,2,3,4-tetrahydroisoquinolin-6-yl)-2,6-dimethylpyridin-3-yl)acetic acid] | < 0.1 | –
16 | Cc1nc(C)c([C@H](OC(C)(C)C)C(=O)O)c(N2CCC(C)(C)CC2)c1-c1ccc2c(c1)CCN(Cc1ccc(F)cc1C(F)(F)F)C2 [Compound 69, (S)-2-(tert-butoxy)-2-(4-(4,4-dimethylpiperidin-1-yl)-5-(2-(4-fluoro-2-(trifluoromethyl)benzyl)-1,2,3,4-tetrahydroisoquinolin-6-yl)-2,6-dimethylpyridin-3-yl)acetic acid] | < 0.1 | –
17 | Cc1nc(C)c([C@H](OC(C)(C)C)C(=O)O)c(N2CCC(C)(C)CC2)c1-c1ccc2c(c1)CCN(Cc1cc(C(F)(F)F)ccc1F)C2 [Compound 70, (S)-2-(tert-butoxy)-2-(4-(4,4-dimethylpiperidin-1-yl)-5-(2-(2-fluoro-5-(trifluoromethyl)benzyl)-1,2,3,4-tetrahydroisoquinolin-6-yl)-2,6-dimethylpyridin-3-yl)acetic acid] | < 0.1 | –
18 | Cc1cc(CN2CCc3cc(-c4c(C)nc(C)c([C@H](OC(C)(C)C)C(=O)O)c4N4CCC(C)(C)CC4)ccc3C2)ccc1F [Compound 71, (S)-2-(tert-butoxy)-2-(4-(4,4-dimethylpiperidin-1-yl)-5-(2-(4-fluoro-3-methylbenzyl)-1,2,3,4-tetrahydroisoquinolin-6-yl)-2,6-dimethylpyridin-3-yl)acetic acid] | < 0.1 | –
19 | Cc1nc(C)c([C@H](OC(C)(C)C)C(=O)O)c(N2CCC(C)(C)CC2)c1-c1ccc2c(c1)CCN(Cc1ccc(F)c(C)c1C)C2 [Compound 72, (S)-2-(tert-butoxy)-2-(4-(4,4-dimethylpiperidin-1-yl)-5-(2-(4-fluoro-2,3-dimethylbenzyl)-1,2,3,4-tetrahydroisoquinolin-6-yl)-2,6-dimethylpyridin-3-yl)acetic acid] | < 0.1 | –
20 | Cc1ccc(CN2CCc3cc(-c4c(C)nc(C)c([C@H](OC(C)(C)C)C(=O)O)c4N4CCC(C)(C)CC4)ccc3C2)c(F)c1F [Compound 73, (S)-2-(tert-butoxy)-2-(5-(2-(2,3-difluoro-4-methylbenzyl)-1,2,3,4-tetrahydroisoquinolin-6-yl)-4-(4,4-dimethylpiperidin-1-yl)-2,6-dimethylpyridin-3-yl)acetic acid] | < 0.1 | 0.007
21 | Cc1ccc(F)c(CN2CCc3cc(-c4c(C)nc(C)c([C@H](OC(C)(C)C)C(=O)O)c4N4CCC(C)(C)CC4)ccc3C2)c1 [Compound 74, (S)-2-(tert-butoxy)-2-(4-(4,4-dimethylpiperidin-1-yl)-5-(2-(2-fluoro-5-methylbenzyl)-1,2,3,4-tetrahydroisoquinolin-6-yl)-2,6-dimethylpyridin-3-yl)acetic acid] | < 0.1 | –
22 | Cc1cc(CN2CCc3cc(-c4c(C)nc(C)c([C@H](OC(C)(C)C)C(=O)O)c4N4CCC(C)(C)CC4)ccc3C2)cc(C)c1F [Compound 75, (S)-2-(tert-butoxy)-2-(4-(4,4-dimethylpiperidin-1-yl)-5-(2-(4-fluoro-3,5-dimethylbenzyl)-1,2,3,4-tetrahydroisoquinolin-6-yl)-2,6-dimethylpyridin-3-yl)acetic acid] | < 0.1 | –
23 | Cc1cc(CN2CCc3cc(-c4c(C)nc(C)c([C@H](OC(C)(C)C)C(=O)O)c4N4CCC(C)(C)CC4)ccc3C2)cc(F)c1F [Compound 76, (S)-2-(tert-butoxy)-2-(5-(2-(3,4-difluoro-5-methylbenzyl)-1,2,3,4-tetrahydroisoquinolin-6-yl)-4-(4,4-dimethylpiperidin-1-yl)-2,6-dimethylpyridin-3-yl)acetic acid] | < 0.1 | –
24 | Cc1nc(C)c([C@H](OC(C)(C)C)C(=O)O)c(N2CCC(C)(C)CC2)c1-c1ccc2c(c1)CCN(Cc1ccccc1C(C)C)C2 [Compound 77, (S)-2-(tert-butoxy)-2-(4-(4,4-dimethylpiperidin-1-yl)-5-(2-(2-isopropylbenzyl)-1,2,3,4-tetrahydroisoquinolin-6-yl)-2,6-dimethylpyridin-3-yl)acetic acid] | < 0.1 | –
